Experimental findings from publication PMC10281321, “Discovery of an effective anti-inflammatory agent for inhibiting the activation of NF-κB” (Journal of Enzyme Inhibition and Medicinal Chemistry, 2023) are described below.

Holding throughout (assay type): cell-based
In series [1] the test system is LPS-stimulated RAW264.7 cells. The series is described as follows: NO release inhibition in LPS-stimulated RAW264.7 cells (Griess reagent). As to conditions: for IC50: Mus musculus, LPS-stimulated RAW264.7 cells, Griess Reagent; for anti-inflammatory activity (in words): SAR summary covering NO release and NF-κB reporter inhibition. The procedure:
After incubated for 24 hours, cells were treated with tested compounds for different
concentrations(3.125,6.25,12.5,25 and 50μM) for 1 h, and then treated with 1 μg/mL LPS
for further 24 h. The supernatants were collected and NO level was measured using
Griess reagent (Beyotime, China). […]
A general note: The Griess reaction detects nitrite, a stable product of nitric oxide.

In a further series the test system is NF-κB. The series is described as follows: NF-κB transcriptional activity dual-luciferase reporter assay, TNF-α stimulated. The conditions noted are these: Homo sapiens, HEK-293T, HEK293T cells transfected with NF-κB reporter plasmid, stimulated by TNF-α. The procedure:
4.5. NF-κB transcriptional activity assay
HEK293T cells were seeded into 96 well plate at a density of 1×10^5 cells per well. After incubated for 24 hours, cells were transfected with NF-κB reporter plasmid at 100 ng/well using lip2000.Six hours later, the medium was replaced by fresh medium containing tested compounds with different concentrations. Then incubated for another hour, TNF-α was added for a final concentration at 10 ng/mL.12 hours later, the cell lysate was collected and the RLU was measured by microplate reader. […]
On the technique in general: In a reporter assay the amount or activity of a reporter protein is the signal.

Series [2] is described as follows: Cytotoxicity by MTT assay.

Broadly, the IC50 is the concentration that inhibits the measured activity by half. Read a low IC50 as inhibition by little substance. On to `CC(=O)Nc1ccc(NC(=O)c2cc(-c3cccc(O)c3)cnc2N)cc1` [Compound 44], for which the values for the IC50 (in series [1]; in the series with NF-κB; in series [2]) were over 50 µM, over 2 µM and over 50 µM, respectively.
For the compound `CCc1ccc(NC(=O)c2cc(-c3ccc(CC)cc3)cnc2N)cc1` [Compound 19], the IC50 in series [1] is 28.5 ± 2.1 µM; with NF-κB, over 2 µM; in series [2], over 25 µM.
For the compound `CCc1ccc(-c2cnc(N)c(C(=O)Nc3ccc(C)cc3)c2)cc1` [Compound 7], the IC50 is 26.7 ± 3.2 µM in series [1], over 2 µM in the series on NF-κB and over 25 µM in series [2].
On to `CCc1ccc(-c2cnc(N)c(C(=O)Nc3ccc(Cl)cc3)c2)cc1` [Compound 17], for which the IC50 in series [1] is over 50 µM; in the series on NF-κB it was over 2 µM; in series [2] it was over 25 µM.
Take `CC(=O)Nc1ccc(NC(=O)c2cc(-c3ccc(C=O)c(C)c3)cnc2N)cc1` [Compound 49]: the IC50 in series [1] was over 50 µM; in the series on NF-κB, over 2 µM; in series [2] it was over 50 µM.
In the case of `CC(=O)Nc1ccc(NC(=O)c2cc(-c3ccccc3Cl)cnc2N)cc1` [Compound 37], the values for the IC50 (in series [1]; in the series on NF-κB; in series [2]) were over 50 µM, over 2 µM and over 50 µM, respectively.
As for `CC(=O)Nc1ccc(NC(=O)c2cc(-c3ccc(F)c(C)c3)cnc2N)cc1` [Compound 50], the IC50 in series [1] is 8.6 ± 1.9 µM; in the series on NF-κB, 0.577 ± 0.0216 µM; in series [2], over 50 µM. Moreover, the “anti-inflammatory activity (in words)” value in series [1] is on record as “superior anti-inflammatory activity”.
For `COc1cccc(-c2cnc(N)c(C(=O)Nc3ccc(NC(C)=O)cc3)c2)c1` [Compound 32], the IC50 in series [1] was over 50 µM; in the series with NF-κB, over 2 µM; in series [2], over 50 µM.
On to `CCc1ccc(-c2cnc(N)c(C(=O)Nc3cccc(C)c3)c2)cc1` [Compound 8], for which the IC50 in series [1] is 15.2 ± 2.8 µM; in the series on NF-κB it was 1.329 ± 0.0115 µM; in series [2], over 25 µM.
Turning to `CC(=O)Nc1ccc(NC(=O)c2cc(-c3ccc(C)cc3)cnc2N)cc1` [Compound 28], the IC50 was 24.2 ± 4.1 µM in series [1], over 2 µM in the series on NF-κB and over 50 µM in series [2]. Besides, in series [1], the “anti-inflammatory activity (in words)” value was “anti-inflammatory activity decreased significantly”.
Taken in the same sequence, the figures for `CCc1ccc(-c2cnc(N)c(C(=O)Nc3cccc(NC(C)=O)c3)c2)cc1` [Compound 14] were 3.2 ± 1.1 µM, 0.167 ± 0.0084 µM, over 25 µM and “strong anti-inflammatory activity”.
As to `CCc1ccc(-c2cnc(N)c(C(=O)Nc3ccccc3NC(C)=O)c2)cc1` [Compound 15], the figures for the IC50 (in series [1]; with NF-κB; in series [2]) were 1.1 ± 0.4 µM, 0.532 ± 0.0135 µM and 3.2 ± 0.8 µM, respectively. The “anti-inflammatory activity (in words)” value in series [1] is “strong anti-inflammatory activity”.
Take `COc1ccc(-c2cnc(N)c(C(=O)Nc3ccc(NC(C)=O)cc3)c2)c(OC)c1OC` [Compound 34]: the figures for the IC50 (in series [1]; with NF-κB; in series [2]) were over 50 µM, over 2 µM and over 50 µM, respectively.
